{
  "source": "patent US9636417B2",
  "about": "“Mucosal membrane receptor and uses thereof” (Universiteit Gent, priority 2008, dated 2017)",
  "key": {"[1]": {"tested_on": "BBMV of F4R+ pigs", "assay": "F4 binding to BBMV after glycosidase or periodate treatment", "parameters": "species or system pig", "description": "To remove sialic acid from the pAPN, 2 mg/ml BBMV from F4R+ pigs were incubated with soluble neuraminidase from Arthrobacter urefaciens (Calbiochem, specific for α2-3,6,8,9 linked sialic acid) for 3 hours at 37° C. according to the manufacturer's instructions. Fetuin, a sialic acid containing protein was used as a positive control and the buffer in which the neuraminidase was provided, was used as a negative control. Brush border membrane vesicles from F4R+ pigs were treated with N-glycosidase F (NEB, Beverly, Mass.) or with endoglycosidase H (NEB Beverly, Mass.) according to the manufacturer's instructions to remove all N-glycans (high mannose and complex, sialic acid containing glycans) or N-glycans of the high mannose type, respectively. RNAse B was used as a positive control and the buffer in which the enzyme was provided, was used as a negative control.\nBrush border membrane vesicles from F4R+ pigs were treated with variable concentrations of NaIO4 (Sigma-Aldrich Chemie GmbH, Steinheim, Germany) in 50 mM sodiumacetate, pH 4.5, at 37° C. in the dark. Reactions were stopped by the addition of ethylene glycol to a final concentration of 20 mM. Brush border membrane vesicles from F4R− pigs were treated with the same […] and were used as a negative control."}, "[2]": {"tested_on": "pAPN-BHK-21 cells", "assay": "Endocytosis assay (confocal microscopy) of FLUOS-labeled-F4 with chemical inhibitors", "type": "cell-based, porcine", "conditions": "for effect on F4 internalization in pAPN-BHK cells: different concentrations, inhibitor added 30 min before FLUOS-labeled-F4", "description": "Cells were then washed with PBS supplemented with 0.1 mM CaCl2 and 1 mM MgCl2 (PBS+) to remove unbound FLUOS-labeled-F4 and shifted to 37° C. to start endocytosis. After different time intervals, cells were fixed with 3% paraformaldehyde (PF), permeabilized with 0.1% Triton X-100 and stained with 200 nM phalloidin-Texas Red (Molecular Probes, Eugene, Oreg., USA) in PBS+ for 1 h at 37° C. To analyze the effect of different inhibitors on endocytosis, cells were incubated with different concentrations of each inhibitor (Table 1). Inhibitors were added 30 min before incubation with FLUOS-labeled-F4 (25 μg). Cells were fixed with 3% PF at the indicated times. For each concentration of the chemical inhibitors, the viability of the cells was analyzed by flow cytometry after the addition of 10 μg propidium iodide (Molecular Probes, Eugene, Oreg., USA). The number of vesicles internalized in the cells was counted using confocal microscopy. Confocal images were acquired using a Leica TCS SP2 laser scanning spectrum confocal system (Leica Microsystems), using an argon 488-nm laser line and a […] 543-nm laser line to excite FITC and Texas Red respectively. Images were merged using Leica confocal software."}, "[3]": {"biological_target": "T1, F4R on brush border membrane vesicles (BBMV) (Sus scrofa, UniProt P15145)", "T1 construct": "Brush border membrane vesicles (BBMV) of the small intestine were prepared from the F4R+ and F4R− pigs; from tissue; host or cells: pig jejunum: enterocyte preparations, BBMV, ligated jejunal loops", "T1 sequence (P15145 2-963)": "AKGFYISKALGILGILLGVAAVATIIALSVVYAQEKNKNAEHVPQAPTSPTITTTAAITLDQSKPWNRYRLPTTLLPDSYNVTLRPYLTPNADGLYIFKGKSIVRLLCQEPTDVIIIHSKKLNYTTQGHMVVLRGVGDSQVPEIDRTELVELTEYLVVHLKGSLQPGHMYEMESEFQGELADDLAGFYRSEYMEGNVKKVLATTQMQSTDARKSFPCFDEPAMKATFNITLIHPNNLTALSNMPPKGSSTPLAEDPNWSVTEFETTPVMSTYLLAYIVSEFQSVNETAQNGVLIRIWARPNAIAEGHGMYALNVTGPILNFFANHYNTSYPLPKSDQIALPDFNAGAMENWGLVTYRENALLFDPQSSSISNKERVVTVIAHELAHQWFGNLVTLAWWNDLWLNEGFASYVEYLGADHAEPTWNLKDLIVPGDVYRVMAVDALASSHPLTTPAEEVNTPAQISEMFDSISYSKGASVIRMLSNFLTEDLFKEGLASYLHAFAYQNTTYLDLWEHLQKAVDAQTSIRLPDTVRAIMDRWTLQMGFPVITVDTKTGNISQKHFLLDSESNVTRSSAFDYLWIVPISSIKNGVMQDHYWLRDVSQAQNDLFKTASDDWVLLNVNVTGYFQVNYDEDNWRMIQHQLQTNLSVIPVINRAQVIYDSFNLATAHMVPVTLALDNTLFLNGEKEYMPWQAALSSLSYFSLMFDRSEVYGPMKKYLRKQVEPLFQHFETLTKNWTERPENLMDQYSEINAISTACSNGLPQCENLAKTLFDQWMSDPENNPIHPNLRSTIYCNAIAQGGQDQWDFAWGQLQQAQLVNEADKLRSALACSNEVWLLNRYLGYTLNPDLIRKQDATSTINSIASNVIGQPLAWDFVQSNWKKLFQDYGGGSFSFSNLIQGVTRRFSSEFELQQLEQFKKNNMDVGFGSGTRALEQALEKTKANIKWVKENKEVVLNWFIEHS", "assay": "biochemical", "type": "binding, pig", "conditions": "read-out: inhibition of adhesion of F4R+ BBMV to F4ac", "protocol": "Brush border membrane vesicles (BBMV) of the small intestine were prepared from the F4R+ and F4R− pigs by the method of Kessler (1978) with a slight modification. Enterocytes were washed twice in PBS with 0.1 mM PMSF and were resuspended in Tris-HCl buffer (2 mM, pH 7.2) containing 50 mM mannitol in ratio 3:1 (vol/vol) whereafter cells were homogenized for 2 min with an Ultra Turrax (Janke & Kunkel, I K A Labortechnik, Staufen, Germany). Subsequently, CaCl2 was added to the homogenate to a final concentration of 10 mM and placed on ice for 15 min. Then the homogenate was centrifugated at 27,000×g for 30 min and washed with Tris buffer (pH 7.5) containing 50 mM mannitol and 10 mM HEPES and centrifuged again. The pellet was resuspended in the same buffer and used for the study. The protein concentration of the obtained BBMV was determined using the bicinchoninic acid (BCA) reaction with bovine serum albumin (BSA) as standard (ICN Biomedicals, Belgium).\nThe interaction between the F4ac fimbriae and BBMV or enterocytes of F4R+ and F4R− pigs was analyzed with the BIAcore®2000 biosensor (Uppsala, Sweden) using the CM3 chip. […]"}, "[4]": {"biological_target": "T2, pAPN transfected BHK-21 cells (Sus scrofa, UniProt P15145)", "T2 construct": "expressed in transfected cells; host or cells: BHK-21 (baby hamster kidney), G418-selected; gift", "T2 sequence (P15145 1-963)": "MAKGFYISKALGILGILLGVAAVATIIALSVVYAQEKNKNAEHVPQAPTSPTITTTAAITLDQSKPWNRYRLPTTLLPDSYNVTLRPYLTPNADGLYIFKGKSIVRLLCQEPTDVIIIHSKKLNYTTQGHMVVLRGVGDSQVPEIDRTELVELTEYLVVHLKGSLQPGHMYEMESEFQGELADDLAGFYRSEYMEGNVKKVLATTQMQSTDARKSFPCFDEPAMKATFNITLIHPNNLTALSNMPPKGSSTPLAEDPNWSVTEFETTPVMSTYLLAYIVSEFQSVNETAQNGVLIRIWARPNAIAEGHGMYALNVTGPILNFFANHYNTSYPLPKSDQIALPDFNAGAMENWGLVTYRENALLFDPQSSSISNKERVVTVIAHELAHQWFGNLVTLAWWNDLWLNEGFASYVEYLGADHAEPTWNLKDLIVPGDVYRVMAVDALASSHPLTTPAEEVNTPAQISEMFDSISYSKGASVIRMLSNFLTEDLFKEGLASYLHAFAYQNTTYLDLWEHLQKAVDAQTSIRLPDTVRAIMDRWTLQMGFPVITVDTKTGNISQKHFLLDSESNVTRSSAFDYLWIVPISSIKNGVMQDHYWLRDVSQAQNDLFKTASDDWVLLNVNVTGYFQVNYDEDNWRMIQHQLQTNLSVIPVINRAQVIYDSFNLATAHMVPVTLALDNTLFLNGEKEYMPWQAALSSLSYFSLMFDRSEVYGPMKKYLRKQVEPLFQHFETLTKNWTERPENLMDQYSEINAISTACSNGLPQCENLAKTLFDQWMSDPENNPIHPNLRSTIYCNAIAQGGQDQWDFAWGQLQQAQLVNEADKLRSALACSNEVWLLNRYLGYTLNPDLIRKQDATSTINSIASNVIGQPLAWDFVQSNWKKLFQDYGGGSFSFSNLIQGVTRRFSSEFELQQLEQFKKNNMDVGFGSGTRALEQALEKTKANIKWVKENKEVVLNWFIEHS", "assay": "Flow cytometry of FLUOS-labeled-F4 binding to pAPN transfected BHK-21 cells", "type": "cell-based, porcine", "description": "The BHK-21 and pAPN transfected BHK-21 cells were kindly gifted from Dr. Enjuanes and Dr. Delmas. The BHK-21 cells were cultured in DMEM with 5% FCS, 1% L-Glu, 1% P/S, 1% sodiumpyruvate (Gibco BRL, Life Technologies Inc., Paisley, Scotland), 1% non-essential amino acids (Gibco BRL, Life Technologies Inc., Paisley, Scotland). The pAPN transfected BHK-21 cells were grown in the same medium supplemented with 1.5 mg/ml geneticin G418 (Sigma-Aldrich Chemie GmbH, Steinheim, Germany).\nTo block the internalization of FLUOS-labeled-F4, 50 μM bestatin, an inhibitor of aminopeptidase N (Sigma-Aldrich Chemie GmbH, Steinheim, Germany) was incubated with BHK-21 or pAPN transfected BHK-21 cells 3 hours before addition of 25 μg FLUOS-labeled-F4. Afterwards, cells were washed 3 times with PBS. The BHK-21 or pAPN transfected BHK-21 cells were analyzed by flow cytometry with a FACScanto using CellDiva software (BD Biosciences). Ten thousand cells were analysed for each sample, and three parameters were used for further analysis: forward light scattering, sideward light scattering and green fluorescence. The median fluorescence intensity was used to measure the amount of FLUOS-labeled-F4 to the cells."}, "[5]": {"biological_target": "T3, F4R on enterocytes (Sus scrofa, UniProt P15145)", "T3 construct": "Brush border membrane vesicles (BBMV) of the small intestine were prepared from the F4R+ and F4R− pigs; from tissue; host or cells: pig jejunum: enterocyte preparations, BBMV, ligated jejunal loops", "T3 sequence (P15145 2-963)": "T1 sequence (P15145 2-963)", "assay": "biochemical", "type": "binding, pig", "conditions": "read-out: inhibition of adhesion of F4R+ enterocytes to F4ac", "protocol": "The interaction between the F4ac fimbriae and BBMV or enterocytes of F4R+ and F4R− pigs was analyzed with the BIAcore®2000 biosensor (Uppsala, Sweden) using the CM3 chip. This has a short carboxymethyldextran surface to allow immobilization of F4 fimbriae via free NH2-groups using an amine-coupling kit (Biacore, Uppsala, Sweden) containing N-hydroxysuccinimide (NHS), N-ethyl-N′-[(3-dimethylamino)-propyl]-carbodiimide hydrochloride (EDC) and ethanolamine-HCl. Hereto, 100 μl of a mixture of NHS:EDC (1:1) was injected at a flow rate of 10 μl/min at 25° to activate the dextran matrix on the sensor chip, followed by F4ac at a concentration of 100 μg/ml in 0.1 M glycine buffer pH 2.3 until the amount (mol) of immobilized F4 equilized more than 500 resonance units (RU). […] Subsequently, the remaining active sites of the matrix were blocked with 1 M ethanolamine-HCl and washed with HBS-N (0.01 M HEPES, 0.15 M NaCl). […] All samples used in further experiments were diluted in HBS-N buffer, which also served as running buffer during the experiments.\nThe first approach was to pre-incubate the F4R+ and F4R− enterocytes or BBMV with 0, 50 and 100 μg/ml F4ac fimbriae, while gently shaking. After 1 h pre-incubation at room temperature, a gentle short spin centrifugation was performed. […]"}, "[6]": {"tested_on": "wheat germ agglutinin (WGA)", "assay": "SPR specificity control: bestatin pre-incubated BBMV and enterocytes on immobilized WGA", "type": "binding", "conditions": "bestatin 0 mM, 1 mM and 10 mM; F4R+ pigs", "description": "The interaction between the F4ac fimbriae and BBMV or enterocytes of F4R+ and F4R− pigs was analyzed with the BIAcore®2000 biosensor (Uppsala, Sweden) using the CM3 chip. This has a short carboxymethyldextran surface to allow immobilization of F4 fimbriae via free NH2-groups using an amine-coupling kit (Biacore, Uppsala, Sweden) containing N-hydroxysuccinimide (NHS), N-ethyl-N′-[(3-dimethylamino)-propyl]-carbodiimide hydrochloride (EDC) and ethanolamine-HCl. Hereto, 100 μl of a mixture of NHS:EDC (1:1) was injected at a flow rate of 10 μl/min at 25° to activate the dextran matrix on the sensor chip, followed by F4ac at a concentration of 100 μg/ml in 0.1 M glycine buffer pH 2.3 until the amount (mol) of immobilized F4 equilized more than 500 resonance units (RU). Thousand RU corresponds to a change in the surface concentration of 1 ng/mm2 (Stenberg 1991). Subsequently, the remaining active sites of the matrix were blocked with 1 M ethanolamine-HCl and washed with HBS-N (0.01 M HEPES, 0.15 M NaCl). […] All samples used in further experiments were diluted in HBS-N buffer, which also served as running buffer during the experiments.\nTo check the specificity of blocking of bestatin, F4R+ and F4R− enterocytes or BBMV were pre-incubated with 0, 1 mM and 10 mM bestatin, while gently shaking for 1 hour at room temperature and injected in the WGA coated flow cell. […]"}},
  "note": "Entries after “also recorded” stand apart in the source; their conditions may differ.",
  "data": [
    {"molecule": "[O-][I+3]([O-])([O-])O", "note": "[NaIO4]", "values": [
      {"measurement": "binding of F4 to the receptor in BBMV of F4R+ pig", "setting": "[1]; 25 mM NaIO4, 30 min", "value": "greatly reduced"},
      {"measurement": "F4ac binding to the BBMV of F4R+ pigs", "setting": "[1]; periodate, two hours treatment", "value": "abolishing; also recorded: abolished"}
    ]},
    {"molecule": "NC12CC3CC(CC(C3)C1)C2", "note": "[amantadine]", "values": [
      {"measurement": "effect on F4 internalization in pAPN-BHK cells", "setting": "[2]", "value": "reduced the F4 internalization"}
    ]},
    {"molecule": "CC(C)C[C@H](NC(=O)[C@@H](O)[C@H](N)Cc1ccccc1)C(=O)O", "note": "[bestatin]", "values": [
      {"measurement": "inhibition at 1000 µM", "setting": "[3]", "value": "4 ± 1.2", "unit": "%"},
      {"measurement": "inhibition at 10000 µM", "setting": "[3]", "value": "10 ± 2", "unit": "%"},
      {"measurement": "FLUOS-labeled F4 internalization", "setting": "[2]; bestatin 50 μM, added 30 minutes before FLUOS-labeled F4, pAPN-BHK cells", "value": "18±5.3", "unit": "%"},
      {"measurement": "mean fluorescence intensity after treatment of bestatin", "setting": "[4]", "value": "1001±15"},
      {"measurement": "inhibition at 1000 µM", "setting": "[5]", "value": "22 ± 3.3", "unit": "%"},
      {"measurement": "inhibition at 10000 µM", "setting": "[5]", "value": "72 ± 1", "unit": "%"},
      {"measurement": "interaction of pre-incubated BBMV or enterocytes with WGA", "setting": "[6]", "value": "No difference in interaction"}
    ]},
    {"molecule": "C=C1[C@@H](C)[C@H]2[C@H](Cc3ccccc3)NC(=O)[C@]23[C@H](OC(C)=O)/C=C/[C@@](C)(O)C(=O)[C@@H](C)C/C=C/[C@H]3[C@@H]1O", "note": "[cytochalasin D]", "values": [
      {"measurement": "effect on F4 internalization in pAPN-BHK cells", "setting": "[2]", "value": "reduced the F4 internalization"}
    ]},
    {"molecule": "OC[C@H]1O[C@@](CO)(O[C@H]2O[C@H](CO)[C@@H](O)[C@H](O)[C@H]2O)[C@@H](O)[C@@H]1O", "note": "[hypertonic sucrose, sucrose]", "values": [
      {"measurement": "effect on F4 internalization in pAPN-BHK cells", "setting": "[2]", "value": "reduced the F4 internalization"}
    ]},
    {"molecule": "C/C1=C/C(=O)O[C@@H]2C[C@@H](CC[C@H](C)/C=C\\CC1)O[C@@](O)([C@@H]1CSC(=O)N1)C2", "note": "[latrunculin B]", "values": [
      {"measurement": "effect on F4 internalization in pAPN-BHK cells", "setting": "[2]", "value": "no effect"}
    ]},
    {"molecule": "dynamin inhibitory peptide", "values": [
      {"measurement": "effect on F4 internalization in pAPN-BHK cells", "setting": "[2]", "value": "reduced the F4 internalization"}
    ]}
  ]
}
